Assay results taken from patent EP4745135A1 (Gluetacs Therapeutics (Shanghai) Co., Ltd., priority 2023, dated 2025).

Experiments:
[1] = system: Human multiple myeloma peripheral blood B lymphocyte cell (RPMI-8226); experiment: Tumor cell proliferation inhibition (CellTiter-Meiluncell luminescent cell viability assay); details: RPMI-8226, 96 h; for IC50: read-out: Inhibitory activity (IC50, nM) on tumor cell proliferation, RPMI-8226
[2] = target: T1, CK1α (Homo sapiens, UniProt P48729+Q96SW2); experiment: Western blot, degradation of substrate protein in hPBMCs; format: cell-based; details: Western blot, 24 hours of compound treatment, compounds tested at 50 nM and 500 nM (concentration for the table not stated)
T1 construct: effects of the compounds of the present disclosure on the expression of target proteins in cells; endogenous in cells; host or cells: human PBMCs (Milecell Biotechnologies)
T1 sequence (P48729 whole entry): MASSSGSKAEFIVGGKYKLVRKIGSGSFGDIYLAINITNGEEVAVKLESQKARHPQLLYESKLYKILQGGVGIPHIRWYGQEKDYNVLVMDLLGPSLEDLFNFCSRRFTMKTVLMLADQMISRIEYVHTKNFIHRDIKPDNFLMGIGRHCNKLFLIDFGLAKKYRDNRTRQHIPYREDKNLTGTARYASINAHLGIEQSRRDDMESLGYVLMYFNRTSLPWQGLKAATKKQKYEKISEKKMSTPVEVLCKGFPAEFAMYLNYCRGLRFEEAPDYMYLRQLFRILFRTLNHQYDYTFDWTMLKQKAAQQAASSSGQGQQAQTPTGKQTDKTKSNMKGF
T1 sequence (Q96SW2 whole entry): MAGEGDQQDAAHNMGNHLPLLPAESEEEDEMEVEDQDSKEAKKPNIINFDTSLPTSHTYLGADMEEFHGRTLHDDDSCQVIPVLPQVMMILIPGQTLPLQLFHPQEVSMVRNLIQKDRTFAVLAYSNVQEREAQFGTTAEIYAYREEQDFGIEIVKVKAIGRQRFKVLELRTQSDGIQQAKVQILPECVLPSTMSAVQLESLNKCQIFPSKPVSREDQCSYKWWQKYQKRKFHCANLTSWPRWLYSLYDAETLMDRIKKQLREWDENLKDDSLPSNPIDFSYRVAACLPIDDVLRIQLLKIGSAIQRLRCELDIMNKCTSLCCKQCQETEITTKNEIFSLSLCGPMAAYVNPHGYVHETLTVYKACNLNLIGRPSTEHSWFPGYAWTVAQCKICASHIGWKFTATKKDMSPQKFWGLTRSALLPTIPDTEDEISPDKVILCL
T1 sequence (Q16531 whole entry partner): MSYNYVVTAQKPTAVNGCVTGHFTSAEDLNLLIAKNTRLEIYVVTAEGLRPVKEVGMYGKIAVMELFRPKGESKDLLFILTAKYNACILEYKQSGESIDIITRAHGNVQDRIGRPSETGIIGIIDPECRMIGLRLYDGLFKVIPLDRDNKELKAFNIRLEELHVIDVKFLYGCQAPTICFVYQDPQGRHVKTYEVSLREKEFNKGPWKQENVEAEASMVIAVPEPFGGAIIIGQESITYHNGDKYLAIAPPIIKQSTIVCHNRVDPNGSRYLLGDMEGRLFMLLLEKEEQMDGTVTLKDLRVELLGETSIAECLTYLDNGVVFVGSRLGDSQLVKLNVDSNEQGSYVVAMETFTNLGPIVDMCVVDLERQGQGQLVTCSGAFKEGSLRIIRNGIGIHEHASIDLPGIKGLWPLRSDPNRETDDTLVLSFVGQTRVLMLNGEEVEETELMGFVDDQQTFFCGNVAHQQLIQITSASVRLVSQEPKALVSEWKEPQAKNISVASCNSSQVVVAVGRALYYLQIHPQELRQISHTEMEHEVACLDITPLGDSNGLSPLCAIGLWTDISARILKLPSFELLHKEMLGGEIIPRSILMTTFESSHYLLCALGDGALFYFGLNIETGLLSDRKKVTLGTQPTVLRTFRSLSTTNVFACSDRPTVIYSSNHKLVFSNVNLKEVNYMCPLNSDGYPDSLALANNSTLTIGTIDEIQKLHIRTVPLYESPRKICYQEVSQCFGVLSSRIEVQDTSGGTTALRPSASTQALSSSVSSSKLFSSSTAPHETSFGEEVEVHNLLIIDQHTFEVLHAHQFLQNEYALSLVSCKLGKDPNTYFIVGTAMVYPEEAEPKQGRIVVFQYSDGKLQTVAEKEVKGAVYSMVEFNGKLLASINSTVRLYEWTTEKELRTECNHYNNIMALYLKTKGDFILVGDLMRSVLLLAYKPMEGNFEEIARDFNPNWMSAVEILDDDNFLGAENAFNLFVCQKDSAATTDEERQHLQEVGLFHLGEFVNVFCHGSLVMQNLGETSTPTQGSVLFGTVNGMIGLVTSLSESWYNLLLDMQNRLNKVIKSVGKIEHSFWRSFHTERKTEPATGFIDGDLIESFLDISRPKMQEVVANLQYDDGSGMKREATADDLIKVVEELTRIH

[3] = target: T2, WEE1 (Homo sapiens, UniProt P30291+Q96SW2); experiment: as above; format: cell-based; details: Western blot, 24 hours of compound treatment, compounds tested at 50 nM and 500 nM (concentration for the table not stated)
T2 construct: effects of the compounds of the present disclosure on the expression of target proteins in cells; endogenous in cells; host or cells: human PBMCs (Milecell Biotechnologies)
T2 sequence (P30291 whole entry): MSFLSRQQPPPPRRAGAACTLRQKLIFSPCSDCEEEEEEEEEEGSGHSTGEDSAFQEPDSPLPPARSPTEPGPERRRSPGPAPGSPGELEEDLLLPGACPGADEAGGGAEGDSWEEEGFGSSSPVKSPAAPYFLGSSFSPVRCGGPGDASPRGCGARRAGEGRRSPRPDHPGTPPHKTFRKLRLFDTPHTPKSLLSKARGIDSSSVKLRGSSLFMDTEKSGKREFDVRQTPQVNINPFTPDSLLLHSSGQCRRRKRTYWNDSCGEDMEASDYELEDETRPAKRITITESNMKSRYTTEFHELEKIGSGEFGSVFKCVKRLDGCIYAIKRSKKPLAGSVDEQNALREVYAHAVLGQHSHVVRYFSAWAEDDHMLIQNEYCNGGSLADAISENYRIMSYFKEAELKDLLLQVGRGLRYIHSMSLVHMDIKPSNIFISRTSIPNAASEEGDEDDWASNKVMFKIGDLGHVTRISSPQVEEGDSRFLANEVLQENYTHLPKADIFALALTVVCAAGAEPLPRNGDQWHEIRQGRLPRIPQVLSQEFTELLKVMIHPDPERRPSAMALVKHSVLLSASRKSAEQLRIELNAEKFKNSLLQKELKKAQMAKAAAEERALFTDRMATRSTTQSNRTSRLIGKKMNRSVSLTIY
T2 sequence (Q96SW2 whole entry): as the sequence (Q96SW2 whole entry) above
T2 sequence (Q16531 whole entry partner): as the sequence (Q16531 whole entry partner) above

[4] = target: T3, IKZF2 (Homo sapiens, UniProt Q96SW2+Q9UKS7); experiment: as above; format: cell-based; details: Western blot, 24 hours of compound treatment, compounds tested at 50 nM and 500 nM (concentration for the table not stated)
T3 construct: effects of the compounds of the present disclosure on the expression of target proteins in cells; endogenous in cells; host or cells: human PBMCs (Milecell Biotechnologies)
T3 sequence (Q9UKS7 whole entry): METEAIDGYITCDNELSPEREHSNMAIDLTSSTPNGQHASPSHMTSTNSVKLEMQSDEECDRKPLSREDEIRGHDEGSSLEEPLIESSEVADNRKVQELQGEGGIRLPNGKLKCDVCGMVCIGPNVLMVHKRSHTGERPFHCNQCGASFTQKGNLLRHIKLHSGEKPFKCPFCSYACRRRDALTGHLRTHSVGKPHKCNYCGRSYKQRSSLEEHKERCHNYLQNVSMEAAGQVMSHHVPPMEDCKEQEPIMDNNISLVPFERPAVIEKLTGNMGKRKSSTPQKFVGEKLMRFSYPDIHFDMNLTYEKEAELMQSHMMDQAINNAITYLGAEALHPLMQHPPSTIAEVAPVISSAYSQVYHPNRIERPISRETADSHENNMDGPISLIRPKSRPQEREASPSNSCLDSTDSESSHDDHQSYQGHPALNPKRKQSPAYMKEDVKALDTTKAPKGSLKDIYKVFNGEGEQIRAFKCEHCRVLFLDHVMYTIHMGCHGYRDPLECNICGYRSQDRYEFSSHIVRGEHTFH
T3 sequence (Q96SW2 whole entry): as the sequence (Q96SW2 whole entry) above
T3 sequence (Q16531 whole entry partner): as the sequence (Q16531 whole entry partner) above

[5] = target: T4, IKZF1 (Homo sapiens, UniProt Q13422+Q96SW2); experiment: as above; format: cell-based; details: Western blot, 24 hours of compound treatment, compounds tested at 50 nM and 500 nM (concentration for the table not stated)
T4 construct: effects of the compounds of the present disclosure on the expression of target proteins in cells; endogenous in cells; host or cells: human PBMCs (Milecell Biotechnologies)
T4 sequence (Q13422 whole entry): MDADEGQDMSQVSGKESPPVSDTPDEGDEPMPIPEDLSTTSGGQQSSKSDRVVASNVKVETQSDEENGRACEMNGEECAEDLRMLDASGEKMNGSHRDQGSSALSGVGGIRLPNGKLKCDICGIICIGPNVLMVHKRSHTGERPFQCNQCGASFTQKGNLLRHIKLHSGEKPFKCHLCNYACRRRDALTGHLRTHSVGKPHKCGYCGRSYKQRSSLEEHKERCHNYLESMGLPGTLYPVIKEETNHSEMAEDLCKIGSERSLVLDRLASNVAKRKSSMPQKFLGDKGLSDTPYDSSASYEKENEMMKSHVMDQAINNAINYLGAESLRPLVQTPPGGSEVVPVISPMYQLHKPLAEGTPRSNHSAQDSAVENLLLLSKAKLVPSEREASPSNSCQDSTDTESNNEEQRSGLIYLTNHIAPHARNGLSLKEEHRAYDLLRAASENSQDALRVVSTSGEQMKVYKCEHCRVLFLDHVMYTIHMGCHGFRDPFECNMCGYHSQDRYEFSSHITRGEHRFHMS
T4 sequence (Q96SW2 whole entry): as the sequence (Q96SW2 whole entry) above
T4 sequence (Q16531 whole entry partner): as the sequence (Q16531 whole entry partner) above

[6] = target: T5, IKZF3 (Homo sapiens, UniProt Q96SW2+Q9UKT9); experiment: as above; format: cell-based; details: Western blot, 24 hours of compound treatment, compounds tested at 50 nM and 500 nM (concentration for the table not stated)
T5 construct: effects of the compounds of the present disclosure on the expression of target proteins in cells; endogenous in cells; host or cells: human PBMCs (Milecell Biotechnologies)
T5 sequence (Q9UKT9 whole entry): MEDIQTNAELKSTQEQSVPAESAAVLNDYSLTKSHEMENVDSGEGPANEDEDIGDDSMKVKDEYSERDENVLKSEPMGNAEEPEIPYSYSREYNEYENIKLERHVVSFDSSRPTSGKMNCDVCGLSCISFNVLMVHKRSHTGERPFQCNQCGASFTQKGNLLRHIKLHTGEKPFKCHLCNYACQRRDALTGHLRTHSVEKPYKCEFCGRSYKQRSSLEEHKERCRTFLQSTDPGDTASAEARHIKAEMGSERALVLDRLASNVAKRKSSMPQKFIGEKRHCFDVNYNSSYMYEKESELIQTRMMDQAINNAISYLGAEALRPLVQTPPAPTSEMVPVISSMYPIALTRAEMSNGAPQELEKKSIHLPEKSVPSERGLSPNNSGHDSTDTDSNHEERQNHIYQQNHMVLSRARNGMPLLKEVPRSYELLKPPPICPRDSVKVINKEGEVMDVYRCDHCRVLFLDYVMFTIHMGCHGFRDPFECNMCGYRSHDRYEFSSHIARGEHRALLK
T5 sequence (Q96SW2 whole entry): as the sequence (Q96SW2 whole entry) above
T5 sequence (Q16531 whole entry partner): as the sequence (Q16531 whole entry partner) above

[7] = target: T6, human Cereblon WT GST-tagged protein (Homo sapiens, UniProt Q96SW2); experiment: CRBN-binding affinity, HTRF (CEREBLON BINDING kit); details: CRBN binding, HTRF, 3 hours at room temperature; read-out: HTRF IC50
T6 construct: purchased CISBIO 64BDCRBNPEH
T6 sequence (Q96SW2 whole entry): as the sequence (Q96SW2 whole entry) above

[8] = system: Human multiple myeloma cell (MM.1S); experiment: Tumor cell proliferation inhibition (CellTiter-Meiluncell luminescent cell viability assay); details: Homo sapiens, MM1.S, 96 h, read-out: Inhibitory activity (IC50, nM) on tumor cell proliferation, MM.1S
Procedure: (§1) The tumor cells used herein were cultured in a cell culture medium listed in table 2 at 37°C in an incubator with 5% CO2. Prior to experimentation, all cell lines used were correctly identified by STR profiling, and tested negative for mycoplasma contamination using a mycoplasma detection kit through routine screenings.
(§2) The IC50 values of the compounds of the present disclosure (including the compounds in Table 1 and Examples) were determined using the CellTiter-Meiluncell Luminescent Cell Viability Assay Kit from Dalian Meilun Biotech Co., Ltd. The detailed procedure is as follows: Tumor cells were seeded in 96-well cell culture plates at the densities specified in Table 3. On the following day, the test compounds of the present disclosure were subjected to serial dilution. The dilution can be performed according to one of the following two methods: • (1) The first dilution method: The test compounds of the present disclosure (including the compounds in Table 1 and Examples) were subjected to 5-fold serial dilutions starting from a highest concentration of 2000 µM, resulting in a total of 9 concentrations from high to low (2000, 400, 80, 16, 3.2, 0.64, 0.128, 0.0256, 0.00512 µM). Subsequently, 0.5 µL of the test compound dilution was transferred into the 96-well plate containing the cells, with each well containing 100 µL of cell culture medium. […] Into the 96-well plate, the diluted test compounds and corresponding detection reagents were added, resulting in final test compound concentrations of 500 nM and 10 nM, respectively. The experimental procedure is described below using the diluted 2 µM test compound as an example.
(§3) 0.5 µL of the aforementioned diluted compound of the present disclosure (including the compounds in Table 1 and Examples) was added to the seeded cells in 100 µL of medium, yielding a final test compound concentration of 10 nM. After the cells were treated with the compounds of the present disclosure for a specified period, the cell viability assay reagent was added to the culture medium according to the kit's instructions to determine cell viability. […] All controls were treated using the same procedure as the compounds of the present disclosure. The growth inhibition curves for the compounds of the present disclosure were plotted using Prism GraphPad software, and the IC50 values were calculated therefrom.

[9] = system: GSPT1; experiment: Western blot, degradation of substrate protein in hPBMCs; format: cell-based, Human; details: Western blot, 24 hours of compound treatment, compounds tested at 50 nM and 500 nM (concentration for the table not stated)
[10] = system: Human diffuse large B-cell lymphoma cell line: TMD8; experiment: Tumor cell proliferation inhibition (CellTiter-Meiluncell luminescent cell viability assay); details: TMD8, 96 h, read-out: Inhibitory activity (IC50, nM) on tumor cell proliferation, TMD8
Procedure: as §1, §2
0.5 µL of the aforementioned diluted compound of the present disclosure (including the compounds in Table 1 and Examples) was added to the seeded cells in 100 µL of medium, yielding a final test compound concentration of 10 nM. […] The growth inhibition curves for the compounds of the present disclosure were plotted using Prism GraphPad software, and the IC50 values were calculated therefrom.

[11] = system: Human colon cancer cell line: SW620; experiment: as above; details: SW-620, 96 h
Procedure: as §1, §2, §3

[12] = system: Human non-small cell lung cancer cell line: NCI-H1975; experiment: as above; details: NCI-H1975, 96 h, read-out: Inhibitory activity (IC50, nM) on tumor cell proliferation, H1975
Procedure: as §1, §2, §3

[13] = system: Human T lymphocytic leukemia cell line: Jurkat; experiment: as above; details: 96 h; for IC50: read-out: Inhibitory activity (IC50, nM) on tumor cell proliferation, Jurkat
[14] = system: Human gastric cancer cell line: MGC803; experiment: as above; details: MGC-803, read-out: Inhibitory activity (IC50, nM) on tumor cell proliferation, MGC803
Procedure: as §2, §3

[15] = system: Human malignant melanoma cell line: A375; experiment: as above; details: A-375, 96 h
Procedure: as §1, §2, §3

[16] = system: Human mantle cell lymphoma cell line: JEKO-1; experiment: as above; details: JeKo-1, 96 h, read-out: Inhibitory activity (IC50, nM) on tumor cell proliferation, JEKO-1
Procedure: as §1, §2, §3

[17] = system: Human breast cancer cell (MCF-7); experiment: as above; details: MCF7, 96 h; for IC50: read-out: Inhibitory activity (IC50, nM) on tumor cell proliferation, MCF7
[18] = system: Human acute myeloid leukemia cell line: Kasumi-1; experiment: as above; details: Kasumi 1, 96 h
Procedure: as §1, §2, §3

[19] = system: Human T cell acute lymphoblastic leukemia cell (CCRF-CEM); experiment: as above; details: 96 h
Procedure: as §1, §2, §3

[20] = system: Human myeloid monocytic leukemia cell (MV-4-11); experiment: as above; details: MV4-11, 96 h
[21] = system: Human monocytic leukemia cell line: THP-1; experiment: as above; details: THP-1, 96 h
Procedure: as §1, §2, §3

[22] = read-out: Inhibition Rate at 10 nM (%)
[23] = read-out: Inhibition Rate at 500 nM (%)

| Structure (SMILES) | IC50 [1] | CK1α substrate protein remaining % [2] | Wee1 substrate protein remaining % [3] | IKZF2 substrate protein remaining % [4] | IKZF 1 substrate protein remaining % [5] | IKZF3 substrate protein remaining % [6] | IC50 [7] | IC50 [8] | GSPT1 substrate protein remaining % [9] | IC50 [10] | IC50 [12] | IC50 [13] | IC50 [14] | IC50 [16] | IC50 [17] | other results |
| --- | --- | --- | --- | --- | --- | --- | --- | --- | --- | --- | --- | --- | --- | --- | --- | --- |
| Cn1cc(C2=CCN(Cc3ccc4c(c3)CN(C3CCC(=O)NC3=O)C4=S)CC2)c2ccc(F)cc21 (centres unmarked) [GT-05247, 3-(5-((4-(6-fluoro-1-methyl-1H-indol-3-yl)-3,6-dihydropyridin-1(2H)-yl)methyl)-1-thioxoisoindolin-2-yl)piperidine-2,6-dione] | 10 to 50 nM | A (0% ≤ substrate protein remaining % ≤ 80%) | A (0% ≤ substrate protein remaining % ≤ 80%) | A (0% ≤ substrate protein remaining % ≤ 80%) | B (80%< substrate protein remaining %≤ 100%) | A (0% ≤ substrate protein remaining % ≤ 80%) | 100 to 500 nM | < 5 nM | A (0% ≤ substrate protein remaining % ≤ 80%) | 100 to 500 nM | – | – | – | – | – | – |
| Nc1cccc2c1C(=O)N(C1CCC(=O)NC1=O)C2=O (centres unmarked) [pomalidomide, reference compound] | 1000 to 5000 nM | – | – | – | – | – | – | 500 to 1000 nM | – | > 10000 nM | > 10000 nM | > 10000 nM | > 10000 nM | 5000 to 10000 nM | > 10000 nM | inhibition at 0.01 µM [11, 22]: 20 to 30%; inhibition at 0.5 µM [11, 23]: 20 to 30%; inhibition at 0.01 µM [13, 22]: 10 to 20%; inhibition at 0.5 µM [13, 23]: 10 to 20%; inhibition at 0.01 µM [1, 22]: 10 to 20%; inhibition at 0.5 µM [1, 23]: 30 to 40%; inhibition at 0.01 µM [15, 22]: 10 to 20%; inhibition at 0.5 µM [15, 23]: 5 to 10%; inhibition at 0.01 µM [17, 22]: 5 to 10%; inhibition at 0.5 µM [17, 23]: 0 to 5%; inhibition at 0.01 µM [18, 22]: -10 to -5%; inhibition at 0.5 µM [18, 23]: -5 to 0%; inhibition at 0.01 µM [19, 22]: 0 to 5%; inhibition at 0.5 µM [19, 23]: 0 to 5%; inhibition at 0.01 µM [20, 22]: 18 to 25%; inhibition at 0.5 µM [20, 23]: 10 to 18%; inhibition at 0.01 µM [21, 22]: 10 to 20%; inhibition at 0.5 µM [21, 23]: 10 to 20% |
| O=C1CCC(N2Cc3cc(CN4CCC(c5c[nH]c6cc(F)ccc56)CC4)ccc3C2=S)C(=O)N1 (centres unmarked) [GT-05243, 3-(5-((4-(6-fluoro-1H-indol-3-yl)piperidin-1-yl)methyl)-1-thioxoisoindolin-2-yl)piperidine-2,6-dione] | 10 to 50 nM | B (80%< substrate protein remaining %≤ 100%) | A (0% ≤ substrate protein remaining % ≤ 80%) | A (0% ≤ substrate protein remaining % ≤ 80%) | B (80%< substrate protein remaining %≤ 100%) | A (0% ≤ substrate protein remaining % ≤ 80%) | < 100 nM | < 5 nM | A (0% ≤ substrate protein remaining % ≤ 80%) | 100 to 500 nM | – | – | – | – | – | – |
| O=C1CCC(N2Cc3cc(CN4CCN(c5cccc6sccc56)CC4)ccc3C2=S)C(=O)N1 (centres unmarked) [GT-05088, 3-(5-((4-(benzo[b]thiophen-4-yl)piperazin-1-yl)methyl)-1-thioxoisoindolin-2-yl)piperidine-2,6-dione] | – | B (80%< substrate protein remaining %≤ 100%) | A (0% ≤ substrate protein remaining % ≤ 80%) | A (0% ≤ substrate protein remaining % ≤ 80%) | A (0% ≤ substrate protein remaining % ≤ 80%) | A (0% ≤ substrate protein remaining % ≤ 80%) | 100 to 500 nM | 10 to 50 nM | A (0% ≤ substrate protein remaining % ≤ 80%) | – | 50 to 100 nM | 50 to 100 nM | 100 to 500 nM | 10 to 50 nM | 100 to 500 nM | – |
